≈ marks a conversion by molar mass, not a printed value. Like-named read-outs stand apart in the source and are kept apart here.

One may read the MIC as the least concentration at which growth counts as inhibited. As a reminder, the IC50 is the concentration that inhibits the measured activity by half.

In data set [1] the test system is MB 5890 Trans pFlp-Vim2 plasmid. Type of data set: cell-based, Pseudomonas aeruginosa. To be noted: OprD+, efflux−.
In data set [2] the test system is Pseudomonas aeruginosa MB 5919. The data set can be described thus: Minimum inhibitory concentrations of sentinel antibiotics (strain quality control). The data set is classed as cell-based. To be noted: OprD+, efflux+, parental strain.
Data set [3] deals with Pseudomonas aeruginosa MB 5890. Described as above. The data set is classed as cell-based. To be noted: OprD+, efflux−, parental strain.
Data set [4] concerns Serratia marcescens expressing IMP-1 (CL5741). Type of data set: cell-based. To be noted: with imipenem 1 μg/ml; 95% inhibition of bacterial growth. In outline: (§1)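 Growth read by absorbance after 22–24 h at 35 °C in CAMHB, with test compound alone or combined with 1 μg/ml imipenem. Inocula came from overnight 35 °C blood-agar colonies, set to a defined OD600 and diluted 1:100. Value is the inhibitor concentration giving synergy.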

The subject of data set [5] is Escherichia coli expressing NDM-1 (CLB30005, CLB30016). Type of data set: cell-based. To be noted: with imipenem 1 μg/ml; 95% inhibition of bacterial growth. In outline: as §1
The subject of data set [6] is Klebsiella pneumoniae expressing VIM-1 (IHMA599644). Type of data set: cell-based. To be noted: with imipenem 1 μg/ml; 95% inhibition of bacterial growth. In outline: as §1
In data set [7] the test system is Pseudomonas aeruginosa PAO1 MB9799 (efflux-, IMP-1). The data set is classed as cell-based. To be noted: restores susceptibility to imipenem at 2 μg/mL in the presence of a class A, C, D serine β-lactamase inhibitor closely related to relebactam; efflux − strain MB9799. The text has this: The strain background was Pseudomonas aeruginosa PAO1.
The strain set was then used as a pair to determine the effect of metallo-β-lactamase inhibitors of Formula I on the MIC of imipenem and/or ceftazidime. A fixed concentration of antibiotic was included in standard microbroth MIC tests, usually at the CLSI (Clinical and Laboratory Standards Institute) breakpoint concentration. A fixed amount of a class A/C beta-lactamase inhibitor was also included to inhibit the resident Pseudomonas AmpC enzyme. A serial titration of the metallo-β-lactamase inhibitor was included and the concentration of metallo-β-lactamase inhibitor which restores susceptibility of the strain to the included antibiotic was recorded. That concentration of metallo-β-lactamase inhibitor was then compared between the two strains to determine the fold difference between the efflux + (MB9798) and efflux − (MB9799) strains. This was taken as an indication of the extent to which the MBLi is subject to efflux.

The next data set has as its target VIM-1 (Pseudomonas aeruginosa (strain ATCC 15692 / DSM 22644 / CIP 104116 / JCM 14847 / LMG 12228 / 1C / PRS 101 / PAO1), UniProt A0A0F7KYQ8). Type of data set: biochemical. To be noted: CCF2-FA substrate, 2 hours at 25° C. The procedure: (§2) Enzyme Activity: Determination of IC50
(§3) The Class B enzyme activities were measured in the presence of the test inhibitor in a fluorescence assay against a commercially available substrate consisting of a cephalosporin core linking 7-hydroxycoumarin to fluorescein (CCF2-FA). […] In a 384-well microplate, the test inhibitor was incubated with the metallo-β-lactamase enzyme and the substrate for 2 hours at 25° C. […] The IC50 value was determined from semi-logarithmic plots of enzyme inhibition versus inhibitor concentration, with a curve generated using a 4-parameter fit.

In a further data set the target is IMP-1 (Serratia marcescens, UniProt P52699). The data set is classed as biochemical. To be noted: CCF2-FA substrate, 2 hours at 25° C. The procedure:
as §2, §3

A further data set concerns the target NDM-1 (Klebsiella pneumoniae, UniProt C7C422). Type of data set: biochemical. To be noted: CCF2-FA substrate, 2 hours at 25° C. The procedure: as §2, §3
Data set [8] deals with Pseudomonas aeruginosa PAO1 MB9798 (efflux+, IMP-1). To be noted: for Efflux ratio: ratio MITC95 PA 9798/MITC95 PA 9799, imipenem at 2 μg/mL; for P. aeruginosa expressing IMP-1, efflux + (MB9798) MITC95: restores susceptibility to imipenem at 2 μg/mL in the presence of a class A, C, D serine β-lactamase inhibitor closely related to relebactam, efflux + strain MB9798. Put shortly: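 Isogenic PAO1 pair (efflux+ MB9798, efflux− MB9799, both IMP-1) tested by microbroth MIC with fixed imipenem and/or ceftazidime, usually at CLSI breakpoint, plus fixed class A/C inhibitor against AmpC. MBL inhibitor titrated; concentration restoring susceptibility recorded and fold difference between strains taken as efflux extent.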

In data set [9] the test system is MB 5890 Trans pFlp-Vim1 (MB9862). The data set is classed as cell-based, Pseudomonas aeruginosa. To be noted: OprD+, efflux−.
For data set [10], the system named is MB 5919 Trans pFlp-Vim1 plasmid (MB 9861). The data set is classed as cell-based, Pseudomonas aeruginosa. To be noted: OprD+, efflux+.
Data set [11] deals with MB 5890 Trans IMP1 plasmid (MB 9799). Type of data set: cell-based, Pseudomonas aeruginosa. The conditions noted are these: OprD+, efflux−.
Data set [12] relates to MB 5919 Trans IMP1 plasmid (MB 9798). The data set is classed as cell-based, Pseudomonas aeruginosa. To be noted: OprD+, efflux+.
In data set [13] the test system is MB 5919 Trans pFlp-Vim2 plasmid. Type of data set: cell-based, Pseudomonas aeruginosa. To be noted: OprD+, efflux+.

Chain of IMP-1 (P52699 whole entry, looked up, species assumed): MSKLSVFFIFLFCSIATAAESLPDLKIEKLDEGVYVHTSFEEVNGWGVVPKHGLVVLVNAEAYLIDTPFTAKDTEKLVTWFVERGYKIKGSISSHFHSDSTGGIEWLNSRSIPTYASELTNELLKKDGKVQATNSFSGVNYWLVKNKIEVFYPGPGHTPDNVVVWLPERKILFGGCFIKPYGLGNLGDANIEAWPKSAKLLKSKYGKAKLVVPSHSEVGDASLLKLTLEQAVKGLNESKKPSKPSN
Chain of NDM-1 (C7C422 whole entry, looked up, species assumed): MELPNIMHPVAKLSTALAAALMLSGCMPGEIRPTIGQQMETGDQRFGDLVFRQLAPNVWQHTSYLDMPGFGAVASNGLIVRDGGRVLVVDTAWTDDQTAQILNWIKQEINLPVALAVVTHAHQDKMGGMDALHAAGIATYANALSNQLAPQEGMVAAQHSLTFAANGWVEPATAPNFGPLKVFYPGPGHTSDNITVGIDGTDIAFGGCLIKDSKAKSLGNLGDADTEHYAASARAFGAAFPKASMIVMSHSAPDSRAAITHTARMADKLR

For the compound `CC(C)(O/N=C(\C(=O)N[C@@H]1C(=O)N2C(C(=O)[O-])=C(C[n+]3ccccc3)CS[C@H]12)c1csc(N)n1)C(=O)O` [CAZ, ceftazidime], the MIC stood at 64 µg/mL (≈ 117 µM) in data set [1], 1 µg/mL (≈ 1.83 µM) in [2] and 0.5 µg/mL (≈ 0.915 µM) in data set [3].
Regarding “(R)-4-(1-(2-aminoethyl)-1H-benzo[d][1,2,3]triazol-4-yl)-N1-(pyrrolidin-3-yl)-3-(2H-tetrazol-5-yl)benzene-1,2-disulfonamide yl)benzene-1,2-disulfonamide [Example 289]”, the “Serratia marcescens (IMP-1) MITC95” value in data set [4] was found to be 1.563 µM. Further, the “Escherichia coli (NDM-1) MITC95” value in [5] turned out to be 0.7813 µM. Also, the “Klebsiella pneumoniae (VIM-1) MITC95” value in data set [6] is 1.563 µM. Further, the “P. aeruginosa expressing IMP-1, efflux − (MB9799) MITC95” value in data set [7] stood at 0.7813 µM. For the same compound, the IC50 at VIM-1 was found to be 0.104 nM; against IMP-1 it was 1.22 nM; at NDM-1, 0.249 nM. The Efflux ratio in data set [8] worked out at 2.00. Besides, the “P. aeruginosa expressing IMP-1, efflux + (MB9798) MITC95” value in [8] turned out to be 1.563 µM.
`C[C@@H](O)[C@H]1C(=O)N2C(C(=O)O)=C(SCCN=CN)C[C@H]12` [Imipenem, imipenem]: the MIC in data set [9] is 64 µg/mL (≈ 214 µM); in data set [10] it was >64 µg/mL; in data set [1], 32 µg/mL (≈ 107 µM); in data set [2], 4 µg/mL (≈ 13.4 µM); in [11], 32 µg/mL (≈ 107 µM); in data set [12], 64 µg/mL (≈ 214 µM). For the same compound, the minimal inhibitory concentration (MIC) in data set [13] is >64 µg/mL; in [3], 2 µg/mL (≈ 6.68 µM).
With `Nc1nc2c(-c3ccc(S(=O)(=O)N4CCN(CCO)CC4)c(S(N)(=O)=O)c3-c3nnn[nH]3)cccc2s1.O=C(O)C(F)(F)F` [Example 92, 4-((4-(2-aminobenzo[d]thiazol-4-yl)-2-sulfamoyl-3-(1H-tetrazol-5-yl)phenyl)sulfonyl)-1-(2-hydroxyethyl) piperazin-1-ium 2,2,2-trifluoroacetate], the “Escherichia coli expressing NDM-1 (CLB30016) MITC95” value in data set [5] came to 12.5 µM. The “P. aeruginosa expressing IMP-1, efflux − (MB9799) MITC95” value in [7] was found to be 6.25 µM. Also, the half-inhibitory concentration (IC50) at VIM-1 (fluorescence assay) came to 1.41 nM; on IMP-1 (fluorescence assay), 1.17 nM; on NDM-1 (fluorescence assay), 0.609 nM. Moreover, in [8], the Efflux ratio amounted to 4.00. Further, in data set [8], the “P. aeruginosa expressing IMP-1, efflux + (MB9798) MITC95” value was 25 µM.
For `CCN1CCN(C(=O)N[C@@H](C(=O)N[C@@H]2C(=O)N3[C@@H]2SC(C)(C)[C@@H]3C(=O)O)c2ccccc2)C(=O)C1=O` [Pipercillin, piperacillin], the MIC in data set [2] amounted to 2 µg/mL (≈ 3.86 µM); in data set [11], 4 µg/mL (≈ 7.73 µM); in data set [12] it was 4 µg/mL (≈ 7.73 µM); in data set [3], 1 µg/mL (≈ 1.93 µM).
`C[C@@H](O)[C@H]1C(=O)N2C(C(=O)O)=C(S[C@@H]3CN[C@H](C(=O)N(C)C)C3)[C@H](C)[C@H]12` [Meropenem, meropenem]: the MIC in data set [9] was 64 µg/mL (≈ 167 µM); in data set [10], >64 µg/mL; in data set [1], 32 µg/mL (≈ 83.4 µM); in data set [2], 2 µg/mL (≈ 5.22 µM); in data set [11] it was 64 µg/mL (≈ 167 µM); in data set [12] it was >64 µg/mL. The MIC was >64 µg/mL in data set [13] and 0.5 µg/mL (≈ 1.3 µM) in data set [3].

Values taken from patent US10544130B2, “Metallo-beta-lactamase inhibitors” (priority 2015, dated 2020).
